From patent publication US20180235934A1, “NORADRENERGIC DRUG TREATMENT OF OBSTRUCTIVE SLEEP APNEA” (Massachusetts Institute of Technology, priority 2015, published 2018)

Legend:
[1] = tested on: urethane-anesthetized rats; experiment: Hypoglossal nerve activity and hLTF under spontaneous REM sleep with episodic airway occlusion; assay type: in vivo, rat
Method: (§1) Recurrent obstructive apneas during spontaneous breathing in urethane-anesthetized rats were simulated by applying 10 or 12 episodes of airway occlusion at one episode per min.
(§2) All values are expressed as mean±SE.
Experiments were performed on 5 adult male rats (body weight 270-550 g) under urethane anesthesia, pancuronium paralysis and artificial ventilation. Unlike other anesthetics, urethane anesthesia retains the sleep-like alternations in brain state and in breathing pattern and chemosensitivity similar to those seen in natural sleep^58-59 (including state-dependent modulations of GG and abdominal respiratory-related activities^40), while also circumventing the highly fragmented natural sleep pattern in rodents^40. As shown in FIGS. 12A-12B, during periods of REM-like sleep (as indicated by increased hippocampal activity) hypoglossal nerve discharge was markedly depressed (by 44.8±9.1%, P<0.01). […] In addition, episodic end-expiratory airway occlusion (lasting 15 seconds each, 1 episode per minute; FIG. 12A, arrows) caused marked time-dependent increases in the amplitude of hypoglossal nerve discharge during each airway occlusion episode.

healthy subjects = conditions: cited from earlier work
[2] = clinically recommended dose range; cited from earlier work
[3] = tested on: urethane-anesthetized rats; experiment: Hypoglossal amplitude and obstructive apnea-induced hLTF after yohimbine, focal at bilateral A7 and A5 regions or intravenous (no REM induction); assay type: in vivo, rat
Excerpt: Recurrent obstructive apneas during spontaneous breathing in urethane-anesthetized rats were simulated by applying 10 or 12 episodes of airway occlusion at one episode per min. […] All values are expressed as mean±SE.

[4] = tested on: urethane-anesthetized rats; experiment: Hypoglossal nerve activity and hLTF under carbachol (cholinergic)-induced REM sleep-like state with episodic airway occlusion; assay type: in vivo, rat
Excerpt: (§3) The EMGs were amplified (CyberAmp 380, Axon Instruments, Union City), integrated (time constant 0.1 s, MA821 RSP Moving Averager, CWE) and sampled at 10 KHz into a Dell PC with LabView software (National Instruments, Austin, Tex.).
A REM sleep-like state in urethane-anesthetized rats was induced by microinjection of the cholinergic agonist carbachol at unilateral dorsomedial pons^1,14 and was detected by the decrease of hypoglossal/GG EMG activity and the appearance of hippocampal theta discharge. The latter was recorded by using a parallel bipolar wire electrode inserted into the hippocampal CA1 region at the following stereotaxic coordinates: 3.7 mm caudal from Bregma, 2.2 mm lateral from midline, and depth of 2.4 mm from brain surface.
as §1, §2

[5] = tested on: urethane-anesthetized spontaneously breathing rats
Method: All experimental protocols were reviewed and approved by the responsible Committee on Animal Care in accordance with published guidelines. Experiments were performed on 45 male adult Sprague-Dawley rats (300-400 g, Charles River Laboratories, Wilmington, Mass.) under urethane anesthesia (initial dose 1.5 g/kg, i.p.; supplemental dose 1/10 of initial dose, i.p. or i.v. when necessary). The femoral vein and artery were cannulated for intravenous infusion and blood pressure monitoring, respectively. Rectal temperature was maintained at 36.5-37.5° C. with a thermostatic heating pad.
After sub-laryngeal tracheal cannulation with a Y-shaped tracheal cannula, two isolated silver wires (O.D. 0.127 mm) were implanted into the genioglossus and diaphragm for EMG recording. The wire tips were exposed for 1 mm and separated by approximately 5 mm once inserted into the muscle. In some rats, the medial branch of the hypoglossal nerve (which innervates the GG and other tongue protrusion muscles) and phrenic nerve (which innervates the diaphragm) were isolated and severed. After the rat was mounted onto the stereotaxic frame, the central end of the nerve was exposed from the back of the neck (dorsal approach) and mounted onto parallel bipolar wire electrodes for recording. These rats were artificially ventilated with oxygen-enriched (40% O2) medical air and paralyzed with pancuronium bromide.
as §3, with “Tex.). The recordings were stabilized for at least 1 hour before any data collection and experimental manipulations were performed.” for “Tex.).”
For brain microinjections, an occipital craniostomy was performed to expose the brain surface. A glass micropipette (tip O.D. 10-20 μm) filled with chemical solution was inserted to the target structure according to its stereotaxic coordinates. Injections (25-50 nl per injection) were performed by applying pressure pulses to the micropipette and confirmed by the movement of the intrapipette solution meniscus. All chemicals were purchased from Sigma-Aldrich (Sigma, St. Louis, Mo.) and dissolved in ACSF at concentration of 10 mM. Stereotaxic coordinates of the A7 region: 2.3-2.6 mm from midline, 0-0.5 mm rostral from interaural level, 8.0-8.5 mm from lambda surface; A5 region: 0-0.5 mm caudal from interaural level, 2.2-2.7 mm from midline, 9.5-10 mm from lambda surface; dorsomedial pons: 1-1.5 mm from midline, 0.2-0.7 mm rostral from interaural level, 7.5-8.5 mm from lambda surface.
Recurrent obstructive apneas during spontaneous breathing in urethane-anesthetized rats were simulated by applying 10 or 12 episodes of airway occlusion at one episode per min. Each episode of airway occlusion started from the end of an expiration (in spontaneous breathing rats as described in Tadjalli et al., J Neurosci 30, 16886-16895 (2010)^5) or lung deflation (in ventilated rats) and lasted 10-12 sec. […]
The amplitudes of the integrated genioglossus EMG (or hypoglossal nerve discharge) and integrated diaphragm EMG (or phrenic nerve discharge) recordings in each respiratory cycle were measured and normalized to the control baseline values. All values are expressed as mean±SE. […]

[6] = tested on: TH-cre transgenic Sprague-Dawley rats; experiment: Episodic optogenetic stimulation of A7 neurons, HM activity and hLTF; conditions: 0.5 mg/kg i.v.
[7] = intravenous 0.5 mg/kg, n=5, vs control n=12
[8] = injection at bilateral A7 region

## CC1c2ccccc2CN1CC1=NCCN1 (stereo not shown) [BRL44408, 2-[2H-(1-Methyl-1,3-dihydroisoindole)methyl]-4,5-dihydroimidazole]
[1]; 0.2 mg/kg i.v., 5 rats
  hypoglossal discharge (baseline) during spontaneous REM-like sleep: effectively restored the hypoglossal discharge to normal baseline level
[1]; 0.2 mg/kg i.v., throughout spontaneous REM sleep
  hypoglossal activity before, during or after episodic airway occlusion: at or above normal baseline level

## CNCCCN1c2ccccc2CCc2ccccc21 [desipramine]
Healthy subjects; healthy subjects, non-REM sleep
  tonic component of GG activity: increased the tonic component of GG activity
Healthy subjects; healthy subjects
  inspiratory-phasic component of GG activity: failed to increase the inspiratory-phasic component of GG activity
Healthy subjects; in vivo
  effect on REM sleep: inhibit REM sleep

## COC(=O)[C@@H]1[C@H]2C[C@H]3c4[nH]c5ccccc5c4CCN3C[C@@H]2CC[C@@H]1O [yohimbine, Yohimbine]
[2]
  effect on REM sleep: does not disrupt REM sleep
  weight gain: does not disrupt REM sleep or cause weight gain
[3]; focal injection at bilateral A7 and A5 regions (50 nl at 2.5 mM per site), n=5, P<0.01
  baseline HM activity: significant increase of baseline HM activity
[3]; focal injection at bilateral A7 and A5 regions, P<0.05
  hLTF during obstructive apnea episodes and up to 20 min afterwards: enhancement of hLTF
[3]; [7]
  baseline hypoglossal amplitude before episodic airway occlusion: augmented baseline hypoglossal amplitude
  hypoglossal amplitude during first and last airway occlusion episodes and 5 and 20 min after: facilitated hypoglossal amplitude
[4]; systemic yohimbine 0.5-1.0 mg/kg i.v., cholinergic-induced REM sleep, n=7, P<0.01
  baseline HM activity: rise of baseline HM activity above the control level
[4]; systemic yohimbine 0.5-1.0 mg/kg i.v., cholinergic-induced REM sleep, up to 20 min after episodic obstructive apnea
  obstructive apnea-induced hLTF: potently reversed the blunting of obstructive apnea-induced hLTF
[1]; i.v., rats, REM sleep
  dose that effectively rescued first- and second-line motor defenses against OSA under REM sleep: > 0.25 mg/kg

## Clc1cccc(Cl)c1N=C1NCCN1 [clonidine]
[5]; application at bilateral A7 or A5 region
  tonic component of GG activity recruited during airway obstruction: strongly suppressed
[5]; injection at bilateral A5 region, n=6
  baseline genioglossus activity: not significantly reduced
[5]; [8]
  facilitation of hypoglossal activity during airway occlusion: markedly attenuated
  hypoglossal long-term facilitation: totally abolished
[5]; injection at bilateral A7 region (~50 nl at 5 mM per site)
  integrated genioglossus EMG amplitude, reduction from pre-injection baseline: ~12%

## COc1cc2nc(N3CCN(C(=O)c4ccco4)CC3)nc(N)c2cc1OC [prazosin]
[6]
  HM activity: decreased
  hLTF after episodic optogenetic stimulation of A7 neurons: no longer resulted in hLTF

## C[N+](C)(C)CCOC(N)=O [carbachol]
[4]; focal carbachol injection at pontine dorsomedial reticular formation, vagi-intact rats
  respiratory-related hypoglossal activity, decrease on transition to REM-like sleep: ~39%
